Structures can show the parent of a compound that is named as a salt.
Legend:
[1] = RH 300 mg/steer/day, ZH 6 mg/steer/day; cited from earlier work
B-AR's = details: swine; within the first 7 days of treatment with RH; cited from earlier work
[2] = Feedlot trial of leptin Arg25Cys genotype x Zilpaterol Hydrochloride administration (Cactus Research); format: in vivo, cattle; details: for daily dry matter intake (DDMI) during ZH treatment: last 24 days on feed; for % USDA stamped quality grade Choice+Prime, effect of ZH administration: vs no ZH
Experimental: In a trial completed at a private research facility in Texas, USA (Cactus Research, Amarillo Tex.) leptin genotype was assessed for potential interaction with Zilpaterol Hydrochloride (ZH). The trial consisted of 4,279 animals and occurred from summer of 2008 and carried through to spring of 2009. The trial was conducted as a randomized complete block design with approximately 90 animals being placed into pens based on leptin genotype and randomly assigned to drug treatment with pen being the experimental unit. Treatment structure was a 3×2 factorial including three letting genotypes (CC, CT and TT) and two drug treatments (zero control and drug treatment). Pens were blocked by time, specifically arrival date of the animal to the feedlot. Each block was slaughtered on the same day, and the complete process replicated eight times resulting in eight blocks. Below is a schematic summary of the trial design.
Upon arrival into the feedlot animals were individually weighed and back fat was measured using ultrasound. These measured were also taken 65, days on feed, and then one week prior to ZH treatment and 2-3 days prior to slaughter. All cattle were slaughtered and USDA carcass data were measured. Growth data were fitted to a non-linear growth model.
Backfat was measure by ultrasound at: • 1) Arrival • 2) 65 days on feed • 3) 1 week prior to zilpaterol initiation • 4) 2-3 days prior to slaughter 8 total blocks, 6 treatment pens per block, and 4,179 head total (avg initial wt=875 lbs) Within blocks, all treatments were killed on the same day (avg days on feed=129

Structure (SMILES)	LM (Longissimus Muscle) area [1]	sheer force and toughness of the muscle tissue [1]	B-AR down-regulation in adipose tissue (B-AR's) [%]	hot carcass weight (HCW) gain response to ZH administration ([2]; CC and CT genotype animals)	% empty body fat (% EBF) change when fed ZH ([2]; CC genotype animals)	marbling score, effect of ZH administration ([2]; CC genotype animals)	daily dry matter intake (DDMI) during ZH treatment ([2]; CC genotype animals)	% USDA stamped quality grade Choice+Prime, effect of ZH administration ([2]; CC genotype animals)	daily dry matter intake (DDMI) during ZH treatment ([2]; CT and TT genotype animals)	marbling score, effect of ZH administration ([2]; TT and CT genotype animals)	rib eye area (REA) gain with ZH administration ([2]; TT and CT genotype animals) [square inches]	% USDA stamped quality grade Choice+Prime, effect of ZH administration ([2]; TT and CT genotype animals)	% empty body fat (% EBF) change when fed ZH ([2]; TT genotype animals)	hot carcass weight (HCW) gain response to ZH administration ([2]; TT genotype animals)
CC(CCc1ccc(O)cc1)NCC(O)c1ccc(O)cc1 (stereo not shown) [RH, Ractopamine Hydrochloride]	no effect	increased	~50	–	–	–	–	–	–	–	–	–	–	–
CC(C)N[C@@H]1CCn2c(=O)[nH]c3cccc(c32)[C@H]1O (racemic) [ZH, Zilpaterol Hydrochloride]	larger	increased	–	largest response	smallest reduction	slight reduction	no change	unaffected	significant reduction	much greater reduction	1.4	significant reductions	largest reduction	lowest response
